# Measured values taken from ChEMBL document CHEMBL5647690, “Inhibition of demethylases by GSK-J1/J4” (Nature, 2014).
# How the values were obtained:
# [1] = biological target: T1, Lysine-specific demethylase 2B (Homo sapiens, UniProt Q8NHM5); assay: Inhibition of KDM2B (1 to 650 residues)(unknown origin) by Alphalisa assay
# T1 sequence (Q8NHM5 whole entry): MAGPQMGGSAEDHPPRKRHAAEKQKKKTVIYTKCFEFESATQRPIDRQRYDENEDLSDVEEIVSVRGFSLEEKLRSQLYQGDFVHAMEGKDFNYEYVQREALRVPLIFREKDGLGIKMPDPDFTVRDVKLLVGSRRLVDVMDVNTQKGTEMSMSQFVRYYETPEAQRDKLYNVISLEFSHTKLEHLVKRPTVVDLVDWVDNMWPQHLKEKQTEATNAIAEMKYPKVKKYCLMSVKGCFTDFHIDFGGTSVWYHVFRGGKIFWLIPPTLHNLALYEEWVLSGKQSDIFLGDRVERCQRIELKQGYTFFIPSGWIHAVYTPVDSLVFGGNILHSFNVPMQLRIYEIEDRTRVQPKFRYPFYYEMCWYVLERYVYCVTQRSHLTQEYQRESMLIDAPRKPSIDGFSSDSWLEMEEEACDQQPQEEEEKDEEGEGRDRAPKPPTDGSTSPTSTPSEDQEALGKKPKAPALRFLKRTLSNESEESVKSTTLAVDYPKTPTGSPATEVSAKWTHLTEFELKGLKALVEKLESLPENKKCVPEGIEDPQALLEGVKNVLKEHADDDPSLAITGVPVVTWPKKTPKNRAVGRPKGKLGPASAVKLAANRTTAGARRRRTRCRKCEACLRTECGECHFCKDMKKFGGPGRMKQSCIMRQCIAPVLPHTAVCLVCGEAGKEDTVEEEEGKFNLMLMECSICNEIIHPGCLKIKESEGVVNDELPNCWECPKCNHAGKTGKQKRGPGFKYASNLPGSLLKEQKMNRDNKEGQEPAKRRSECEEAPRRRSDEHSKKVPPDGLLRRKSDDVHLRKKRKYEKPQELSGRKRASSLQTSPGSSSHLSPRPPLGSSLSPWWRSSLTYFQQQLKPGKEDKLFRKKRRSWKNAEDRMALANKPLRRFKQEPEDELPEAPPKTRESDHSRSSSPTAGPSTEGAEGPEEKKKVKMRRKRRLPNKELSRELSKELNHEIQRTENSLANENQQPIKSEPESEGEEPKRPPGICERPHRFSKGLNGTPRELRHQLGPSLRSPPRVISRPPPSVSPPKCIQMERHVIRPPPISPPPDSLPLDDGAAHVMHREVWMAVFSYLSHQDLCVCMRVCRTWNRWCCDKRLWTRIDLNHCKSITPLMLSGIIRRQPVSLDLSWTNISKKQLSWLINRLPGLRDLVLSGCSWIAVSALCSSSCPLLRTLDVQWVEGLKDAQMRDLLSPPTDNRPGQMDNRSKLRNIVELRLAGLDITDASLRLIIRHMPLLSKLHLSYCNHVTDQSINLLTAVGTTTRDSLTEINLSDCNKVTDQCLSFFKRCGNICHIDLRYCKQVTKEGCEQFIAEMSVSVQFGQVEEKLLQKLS
# [2] = biological target: T2, Lysine-specific demethylase 4B (Homo sapiens, UniProt O94953); assay: Inhibition of KDM4B (2 to 500 residues)(unknown origin) by Alphalisa assay
# T2 sequence (O94953 whole entry): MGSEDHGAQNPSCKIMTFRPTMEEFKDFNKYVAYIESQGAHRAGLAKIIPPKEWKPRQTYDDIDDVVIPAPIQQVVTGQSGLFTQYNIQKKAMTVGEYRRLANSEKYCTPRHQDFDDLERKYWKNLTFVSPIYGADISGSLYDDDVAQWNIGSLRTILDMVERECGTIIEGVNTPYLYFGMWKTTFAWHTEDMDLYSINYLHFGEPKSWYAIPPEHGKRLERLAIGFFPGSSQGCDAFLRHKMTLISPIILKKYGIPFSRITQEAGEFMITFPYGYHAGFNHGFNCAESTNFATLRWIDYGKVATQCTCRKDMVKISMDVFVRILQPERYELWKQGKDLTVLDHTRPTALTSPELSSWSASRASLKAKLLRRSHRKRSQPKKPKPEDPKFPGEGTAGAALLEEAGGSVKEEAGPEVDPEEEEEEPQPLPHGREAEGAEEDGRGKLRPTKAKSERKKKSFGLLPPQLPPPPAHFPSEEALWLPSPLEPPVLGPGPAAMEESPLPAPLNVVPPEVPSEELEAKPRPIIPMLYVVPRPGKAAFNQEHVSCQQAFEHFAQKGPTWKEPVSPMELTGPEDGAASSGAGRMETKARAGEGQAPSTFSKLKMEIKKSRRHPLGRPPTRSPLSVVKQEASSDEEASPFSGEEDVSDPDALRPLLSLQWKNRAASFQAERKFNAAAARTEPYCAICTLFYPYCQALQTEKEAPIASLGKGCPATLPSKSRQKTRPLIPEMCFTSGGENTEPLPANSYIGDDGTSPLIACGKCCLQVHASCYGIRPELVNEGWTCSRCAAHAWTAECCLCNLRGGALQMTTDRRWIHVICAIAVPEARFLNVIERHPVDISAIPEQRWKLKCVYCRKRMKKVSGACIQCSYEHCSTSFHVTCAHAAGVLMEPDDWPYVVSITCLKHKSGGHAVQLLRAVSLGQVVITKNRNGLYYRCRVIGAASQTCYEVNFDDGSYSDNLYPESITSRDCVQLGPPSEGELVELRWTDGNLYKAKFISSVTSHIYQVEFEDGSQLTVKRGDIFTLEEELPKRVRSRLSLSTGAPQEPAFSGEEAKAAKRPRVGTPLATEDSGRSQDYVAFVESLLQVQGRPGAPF
# [3] = biological target: Lysine-specific demethylase 6A (Homo sapiens, UniProt O15550); assay: Inhibition of KDM6A (919 to 1401 residues)(unknown origin) by Alphalisa assay
# Lysine-specific demethylase 6A, sequence (O15550 whole entry, the tested form may be a part): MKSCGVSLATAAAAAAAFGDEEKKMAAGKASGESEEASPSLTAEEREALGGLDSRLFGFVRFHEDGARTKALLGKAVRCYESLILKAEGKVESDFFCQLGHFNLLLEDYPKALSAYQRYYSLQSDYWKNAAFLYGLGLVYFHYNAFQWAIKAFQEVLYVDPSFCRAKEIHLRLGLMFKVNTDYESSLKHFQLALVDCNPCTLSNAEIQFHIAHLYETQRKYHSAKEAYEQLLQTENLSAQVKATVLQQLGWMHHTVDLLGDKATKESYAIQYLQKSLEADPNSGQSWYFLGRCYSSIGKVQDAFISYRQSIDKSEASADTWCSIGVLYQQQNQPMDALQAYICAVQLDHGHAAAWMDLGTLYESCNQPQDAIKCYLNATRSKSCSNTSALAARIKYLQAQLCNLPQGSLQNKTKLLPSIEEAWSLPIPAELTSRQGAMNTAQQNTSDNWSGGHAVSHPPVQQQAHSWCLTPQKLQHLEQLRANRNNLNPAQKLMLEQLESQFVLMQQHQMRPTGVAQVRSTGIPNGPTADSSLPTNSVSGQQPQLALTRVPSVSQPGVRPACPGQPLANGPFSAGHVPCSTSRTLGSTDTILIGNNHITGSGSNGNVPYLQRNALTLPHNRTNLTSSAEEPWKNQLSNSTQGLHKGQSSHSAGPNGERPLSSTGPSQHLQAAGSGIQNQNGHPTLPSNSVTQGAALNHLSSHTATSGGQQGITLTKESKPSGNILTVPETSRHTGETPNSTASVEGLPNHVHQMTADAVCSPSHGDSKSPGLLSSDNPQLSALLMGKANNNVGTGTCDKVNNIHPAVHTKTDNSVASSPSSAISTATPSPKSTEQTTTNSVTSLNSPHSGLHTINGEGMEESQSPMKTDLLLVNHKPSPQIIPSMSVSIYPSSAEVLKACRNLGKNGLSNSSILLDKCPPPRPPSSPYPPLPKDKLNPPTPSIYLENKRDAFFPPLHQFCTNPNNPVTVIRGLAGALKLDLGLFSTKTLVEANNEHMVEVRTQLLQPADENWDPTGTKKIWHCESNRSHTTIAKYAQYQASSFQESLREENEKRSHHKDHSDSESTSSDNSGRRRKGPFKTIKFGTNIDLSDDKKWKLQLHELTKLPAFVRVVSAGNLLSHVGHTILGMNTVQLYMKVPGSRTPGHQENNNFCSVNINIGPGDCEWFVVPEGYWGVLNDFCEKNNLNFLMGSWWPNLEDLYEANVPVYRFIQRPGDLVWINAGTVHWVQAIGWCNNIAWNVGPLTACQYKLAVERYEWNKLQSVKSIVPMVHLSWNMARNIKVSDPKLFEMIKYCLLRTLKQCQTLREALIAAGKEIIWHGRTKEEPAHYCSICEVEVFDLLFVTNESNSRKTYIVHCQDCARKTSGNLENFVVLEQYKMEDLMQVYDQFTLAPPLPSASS
# [4] = biological target: Lysine-specific demethylase 5A (Homo sapiens, UniProt P29375); assay: Inhibition of KDM5A (1 to 1090 residues)(unknown origin) by Alphalisa assay
# Lysine-specific demethylase 5A, sequence (P29375 whole entry, the tested form may be a part): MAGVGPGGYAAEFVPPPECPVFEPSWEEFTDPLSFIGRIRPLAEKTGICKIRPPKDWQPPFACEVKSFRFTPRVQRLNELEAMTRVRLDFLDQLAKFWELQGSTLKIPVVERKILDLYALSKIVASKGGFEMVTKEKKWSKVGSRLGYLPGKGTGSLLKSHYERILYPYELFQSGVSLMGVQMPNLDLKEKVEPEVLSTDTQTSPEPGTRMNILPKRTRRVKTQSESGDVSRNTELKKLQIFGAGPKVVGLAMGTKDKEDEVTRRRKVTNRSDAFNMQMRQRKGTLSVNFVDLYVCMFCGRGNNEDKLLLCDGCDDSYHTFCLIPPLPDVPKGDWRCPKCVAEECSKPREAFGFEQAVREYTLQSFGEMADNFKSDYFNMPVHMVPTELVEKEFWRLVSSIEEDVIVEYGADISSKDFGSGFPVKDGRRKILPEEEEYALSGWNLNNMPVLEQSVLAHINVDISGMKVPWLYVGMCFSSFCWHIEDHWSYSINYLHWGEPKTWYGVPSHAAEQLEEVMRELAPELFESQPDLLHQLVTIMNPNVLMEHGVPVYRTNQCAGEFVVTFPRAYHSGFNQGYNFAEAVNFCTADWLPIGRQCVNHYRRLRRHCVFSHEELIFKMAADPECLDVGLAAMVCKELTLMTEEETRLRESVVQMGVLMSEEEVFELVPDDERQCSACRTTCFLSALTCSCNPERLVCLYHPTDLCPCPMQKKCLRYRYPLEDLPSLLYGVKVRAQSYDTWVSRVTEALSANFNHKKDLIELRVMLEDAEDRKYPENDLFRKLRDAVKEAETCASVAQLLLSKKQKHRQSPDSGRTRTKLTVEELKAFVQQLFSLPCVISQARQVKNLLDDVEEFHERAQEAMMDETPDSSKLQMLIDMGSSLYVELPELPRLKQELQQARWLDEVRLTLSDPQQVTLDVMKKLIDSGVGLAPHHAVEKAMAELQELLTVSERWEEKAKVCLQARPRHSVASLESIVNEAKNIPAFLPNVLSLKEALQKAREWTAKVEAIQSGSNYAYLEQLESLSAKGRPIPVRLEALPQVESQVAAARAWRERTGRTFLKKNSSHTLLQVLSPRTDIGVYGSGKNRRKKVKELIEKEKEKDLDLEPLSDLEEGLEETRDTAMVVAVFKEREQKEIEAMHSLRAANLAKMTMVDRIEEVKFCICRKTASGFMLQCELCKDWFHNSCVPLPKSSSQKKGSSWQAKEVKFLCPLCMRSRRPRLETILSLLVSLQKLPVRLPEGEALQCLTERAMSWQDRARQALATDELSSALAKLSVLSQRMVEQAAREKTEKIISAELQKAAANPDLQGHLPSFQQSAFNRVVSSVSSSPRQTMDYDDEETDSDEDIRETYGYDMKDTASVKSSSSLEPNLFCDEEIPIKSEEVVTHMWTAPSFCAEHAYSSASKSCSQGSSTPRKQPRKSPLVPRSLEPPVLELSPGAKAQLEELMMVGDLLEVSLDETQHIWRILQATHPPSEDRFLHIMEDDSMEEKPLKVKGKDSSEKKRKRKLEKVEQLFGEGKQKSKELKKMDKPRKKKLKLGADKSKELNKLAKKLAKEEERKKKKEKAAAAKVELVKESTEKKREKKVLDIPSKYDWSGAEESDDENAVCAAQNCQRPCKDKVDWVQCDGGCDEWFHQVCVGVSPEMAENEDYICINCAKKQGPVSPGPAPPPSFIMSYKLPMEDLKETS
Structure (SMILES),IC50 [1],IC50 [2],IC50 [3],IC50 [4]
CCOC(=O)CCNc1cc(N2CCc3ccccc3CC2)nc(-c2ccccn2)n1,2.1 µM,3.8 µM,6.6 µM,
O=C(O)CCNc1cc(N2CCc3ccccc3CC2)nc(-c2ccccn2)n1,21 µM,73 µM,0.053 µM,6.8 µM
